According to patent US11103457B2, “Pharmaceutical compositions comprising safinamide” (Zambon S.P.A., priority 2017, dated 2021):

Assay: Sensory evaluation of the active ingredient safinamide (taste and irritation in the mouth)
Assay type: in vivo
Settings: five minutes after rinsing with drinking water; 2 subjects
Method: In order to verify the unpleasant taste and irritation sensation of the active pharmaceutical ingredient, safinamide methanesulphonate, a test was performed in vivo by using an amount of safinamide methanesulfonate equal to 100 mg of safinamide base. Sensory evaluation was carried out by recruiting 2 subjects, who were asked to put said amount in the mouth by avoiding swallowing the mass. At the end of the test, participants were asked to rinse the mouth with plenty of drinking water; five minutes later their tongue and palate resulted to be still sore.

In the case of `C[C@H](NCc1ccc(OCc2cccc(F)c2)cc1)C(N)=O` [safinamide methanesulfonate, (2S)-2-[[4-[(3-fluorophenyl)methoxy]phenyl]methylamino]propanamide], the “tongue and palate after rinsing the mouth” value is reported as “still sore”.
